In US10358427B2, “Modulators of indoleamine 2,3-dioxygenase” (GLAXOSMITHKLINE INTELLECTUAL PROPERTY DEVELOPMENT LIMITED, priority 2015, dated 2019):
Structures can show the parent of a compound that is named as a salt.

Key:
[1] = target: T1, indoleamine 2, 3-dioxygenase (IDO1) (Homo sapiens, UniProt P14902); test: HeLa IDOi assay (kynurenine detection via mass spectrometry); format: cell-based; design: human epithelial HeLa cells (CCL-2; host or cells: HeLa cells stimulated with human IFN-γ; conditions: human epithelial HeLa cells stimulated with IFN-γ; kynurenine by mass spectrometry; 2 days incubation
Method: (§1) Compounds of the present invention were tested via high-throughput cellular assays utilizing detection of kynurenine via mass spectrometry and cytotoxicity as end-points. For the mass spectrometry and cytotoxicity assays, human epithelial HeLa cells (CCL-2; ATCC®, Manassas, Va.) were stimulated with human interferon-γ (IFN-γ) (Sigma-Aldrich Corporation, St. Louis, Mo.) to induce the expression of indoleamine 2, 3-dioxygenase (IDO1). Compounds with IDO1 inhibitory properties decreased the amount of kynurenine produced by the cells via the tryptophan catabolic pathway. Cellular toxicity due to the effect of compound treatment was measured using CellTiter-Glo® reagent (CTG) (Promega Corporation, Madison, Wis.), which is based on luminescent detection of ATP, an indicator of metabolically active cells.
(§2) In preparation for the assays, test compounds were serially diluted 3-fold in DMSO from a typical top concentration of 5 mM and plated at 0.5 μL in 384-well, polystyrene, clear bottom, tissue culture treated plates with lids (Greiner Bio-One, Kremsmünster, Austria) to generate 11-point dose response curves. Low control wells (0% kynurenine or 100% cytotoxicity) contained either 0.5 μL of DMSO in the presence of unstimulated (−IFN-γ) HeLa cells for the mass spectrometry assay or 0.5 μL of DMSO in the absence of cells for the cytotoxicity assay, and high control wells (100% kynurenine or 0% cytotoxicity) contained 0.5 μL of DMSO in the presence of stimulated (+IFN-γ) HeLa cells for both the mass spectrometry and cytotoxicity assays.
Frozen stocks of HeLa cells were washed and recovered in DMEM high glucose medium with HEPES (Thermo Fisher Scientific, Inc., Waltham, Mass.) supplemented with 10% v/v certified fetal bovine serum (FBS) (Thermo Fisher Scientific, Inc., Waltham, Mass.), and 1× penicillin-streptomycin antibiotic solution (Thermo Fisher Scientific, Inc., Waltham, Mass.). The cells were diluted to 100,000 cells/mL in the supplemented DMEM medium. 50 μL of either the cell suspension, for the mass spectrometry assay, or medium alone, for the cytotoxicity assay, were added to the low control wells, on the previously prepared 384-well compound plates, resulting in 5,000 cells/well or 0 cells/well respectively. IFN-γ was added to the remaining cell suspension at a final concentration of 10 nM, and 50 μL of the stimulated cells were added to all remaining wells on the 384-well compound plates. The plates, with lids, were then placed in a 37° C., 5% CO2 humidified incubator for 2 days.
(§3) Following incubation, the 384-well plates were removed from the incubator and allowed to equilibrate to room temperature for 30 minutes. For the cytotoxicity assay, CellTiter-Glo® was prepared according to the manufacturer's instructions, and 10 μL were added to each plate well. After a twenty minute incubation at room temperature, luminescence was read on an EnVision® Multilabel Reader (PerkinElmer Inc., Waltham, Mass.). For the mass spectrometry assay, 10 μL of supernatant from each well of the compound-treated plates were added to 40 μL of acetonitrile, containing 10 μM of an internal standard for normalization, in 384-well, polypropylene, V-bottom plates (Greiner Bio-One, Kremsmünster, Austria) to extract the organic analytes. Following centrifugation at 2000 rpm for 10 minutes, 10 μL from each well of the acetonitrile extraction plates were added to 90 μL of sterile, distilled H2O in 384-well, polypropylene, V-bottom plates for analysis of kynurenine and the internal standard on the RapidFire 300 (Agilent Technologies, Santa Clara, Calif.) and 4000 QTRAP MS (SCIEX, Framingham, Mass.). MS data were integrated using Agilent Technologies' RapidFire Integrator software, and data were normalized for analysis as a ratio of kynurenine to the internal standard. […]

[2] = target: T1, indoleamine 2, 3-dioxygenase (IDO1); test: PBMC IDOi assay (kynurenine detection via mass spectrometry); format: cell-based; conditions: human PBMC stimulated with IFN-γ and LPS; kynurenine by mass spectrometry; 2 days incubation
Method: as §1, with “peripheral blood mononuclear” for “epithelial HeLa”, “(PBMC) (PB003F; AlICells®, Alameda, Calif.)” for “(CCL-2; ATCC®, Manassas, Va.)”, “Mo.) and lipopolysaccharide from Salmonella minnesota (LPS) (Invivogen, San Diego, Calif.)” for “Mo.)”
as §2, with “(−IFN-γ/−LPS) PBMCs” for “(−IFN-γ) HeLa cells”, “(+IFN-γ/+LPS) PBMCs” for “(+IFN-γ) HeLa cells”
Frozen stocks of PBMCs were washed and recovered in RPMI 1640 medium (Thermo Fisher Scientific, Inc., Waltham, Mass.) supplemented with 10% v/v heat-inactivated fetal bovine serum (FBS) (Thermo Fisher Scientific, Inc., Waltham, Mass.), and 1× penicillin-streptomycin antibiotic solution (Thermo Fisher Scientific, Inc., Waltham, Mass.). The cells were diluted to 1,000,000 cells/mL in the supplemented RPMI 1640 medium. 50 μL of either the cell suspension, for the mass spectrometry assay, or medium alone, for the cytotoxicity assay, were added to the low control wells, on the previously prepared 384-well compound plates, resulting in 50,000 cells/well or 0 cells/well respectively. IFN-γ and LPS were added to the remaining cell suspension at final concentrations of 100 ng/ml and 50 ng/ml respectively, and 50 μL of the stimulated cells were added to all remaining wells on the 384-well compound plates. The plates, with lids, were then placed in a 37° C., 5% CO2 humidified incubator for 2 days.
as §3, with “and 40” for “and 10”

T1 sequence (P14902 whole entry): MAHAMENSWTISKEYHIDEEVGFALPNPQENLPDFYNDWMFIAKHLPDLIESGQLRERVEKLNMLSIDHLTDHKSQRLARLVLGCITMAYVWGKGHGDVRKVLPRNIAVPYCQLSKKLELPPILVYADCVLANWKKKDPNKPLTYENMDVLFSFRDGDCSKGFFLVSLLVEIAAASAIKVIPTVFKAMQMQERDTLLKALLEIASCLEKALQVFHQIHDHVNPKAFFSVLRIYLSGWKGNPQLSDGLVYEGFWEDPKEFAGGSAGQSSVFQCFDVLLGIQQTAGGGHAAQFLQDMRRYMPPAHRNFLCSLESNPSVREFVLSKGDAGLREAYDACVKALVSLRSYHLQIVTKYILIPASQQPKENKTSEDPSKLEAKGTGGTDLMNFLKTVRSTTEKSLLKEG

Row | EC50 [1] [nM] | EC50 [2] [nM] | Compound
1 | 100 | – | CC(C)CN(c1ccc([C@H]2C[C@H]2C(=O)O)cc1Nc1nc2ccccc2o1)C1CCCCC1 (relative stereo) [Example 1, cis-2-(3-(Benzo[d]oxazol-2-ylamino)-4-(cyclohexyl(isobutyl)amino)phenyl)cyclopropanecarboxylic acid]
2 | 15.8 | – | CC(C)CN(c1ccc([C@H]2C[C@H]2C(=O)O)cc1Nc1nc2ccccc2s1)C1CCCCC1 (relative stereo) [Example 3, cis-2-(3-(Benzo[d]thiazol-2-ylamino)-4-(cyclohexyl(isobutyl)amino)phenyl)cyclopropanecarboxylic acid]
3 | 10 | 1.26 | CC(C)CN(c1ccc([C@H]2C[C@H]2C(=O)O)cc1Nc1nc(Cl)ns1)C1CCCCC1 (relative stereo) [Example 4, cis-2-(3-((3-Chloro-1,2,4-thiadiazol-5-yl)amino)-4-(cyclohexyl(isobutyl)amino)phenyl)cyclopropanecarboxylic acid]
4 | 398 | – | CC(C)CN(c1ccc([C@H]2C[C@H]2C(=O)O)cc1Nc1nc(-c2ccccc2)co1)C1CCCCC1 (relative stereo) [Example 5, cis-2-(4-(Cyclohexyl(isobutyl)amino)-3-((4-phenyloxazol-2-yl)amino)phenyl)cyclopropanecarboxylic acid]
5 | 10 | 1.26 | CC(C)CN(c1ccc([C@H]2C[C@H]2C(=O)O)cc1Nc1nc(C(F)(F)F)ns1)C1CCCCC1 (relative stereo) [Example 6, cis-2-(4-(Cyclohexyl(isobutyl)amino)-3-((3-(trifluoromethyl)-1,2,4-thiadiazol-5-yl)amino)phenyl)cyclopropanecarboxylic acid, 2,2,2-trifluoroacetic acid]
6 | 5.01 | – | CC(C)CN(c1ccc(C2CC2C(=O)O)cc1Nc1nc2ccccc2[nH]1)C1CCCCC1 (stereo not drawn) [Example 2, cis-2-(3-((1H-Benzo[d]imidazol-2-yl)amino)-4-(cyclohexyl(isobutyl)amino)phenyl)cyclopropanecarboxylic acid]
7 | 79.4 | 39.8 | CC(C)CN(c1ccc(-c2ccccc2C(=O)O)cc1Nc1nc2ccccc2o1)C1CCCCC1 [Example 7, 3′-(Benzo[d]oxazol-2-ylamino)-4′-(cyclohexyl(isobutyl)amino)-[1,1′-biphenyl]-2-carboxylic acid]
8 | 7.94 | – | CC(C)CN(c1ccc(-c2ccccc2C(=O)O)cc1Nc1nc2ccccc2[nH]1)C1CCCCC1 [Example 8, 3′-((1H-Benzo[d]imidazol-2-yl)amino)-4′-(cyclohexyl(isobutyl)amino)-[1,1′-biphenyl]-2-carboxylic acid]
9 | 10 | 2.51 | CC(C)CN(c1ccc(-c2ccccc2C(=O)O)cc1Nc1nc(Cl)ns1)C1CCCCC1 [Example 9, 3′-((3-Chloro-1,2,4-thiadiazol-5-yl)amino)-4′-(cyclohexyl(isobutyl)amino)-[1,1′-biphenyl]-2-carboxylic acid]
10 | 12.6 | – | CC(C)CN(c1ccc(-c2ccccc2-c2nnn[nH]2)cc1Nc1nc(Cl)ns1)C1CCCCC1 [Example 10, N^3-(3-Chloro-1,2,4-thiadiazol-5-yl)-N^4-cyclohexyl-N^4-isobutyl-2′-(1H-tetrazol-5-yl)-[1,1′-biphenyl]-3,4-diamine]
11 | 25.1 | 15.8 | CC(C)CN(c1ccc(-c2ccccc2-c2nnn[nH]2)cc1Nc1nc2ccccc2o1)C1CCCCC1 [Example 11, N^3-(Benzo[d]oxazol-2-yl)-N^4-cyclohexyl-N^4-isobutyl-2′-(1H-tetrazol-5-yl)-[1,1′-biphenyl]-3,4-diamine]
12 | 158 | 39.8 | Cc1cc(Nc2cc(-c3ccccc3-c3nn[nH]n3)ccc2N(CC(C)C)CC(C)C)no1 [Example 12, N^4,N^4-diisobutyl-N^3-(5-methylisoxazol-3-yl)-2′-(2H-tetrazol-5-yl)-[1,1′-biphenyl]-3,4-diamine]
13 | 3.98 | 7.94 | C/C=C/Cc1cc(-c2ccccc2-c2nnn[nH]2)cc(Nc2nc3ccccc3o2)c1OCCC [Example 13, (E)-N-(5-(But-2-en-1-yl)-4-propoxy-2′-(1H-tetrazol-5-yl)-[1,1′-biphenyl]-3-yl)benzo[d]oxazol-2-amine, Trifluoroacetic acid Salt]
14 | 5.01 | 7.94 | CCCCc1cc(-c2ccccc2-c2nnn[nH]2)cc(Nc2nc3ccccc3o2)c1OCCC [Example 14, N-(5-Butyl-4-propoxy-2′-(1H-tetrazol-5-yl)-[1,1′-biphenyl]-3-yl)benzo[d]oxazol-2-amine]
15 | 126 | – | C/C=C/Cc1cc(-c2ccccc2-c2nnn[nH]2)cc(Nc2nc(Cl)ns2)c1OCCC [Example 15, (E)-N-(5-(But-2-en-1-yl)-4-propoxy-2′-(1H-tetrazol-5-yl)-[1,1′-biphenyl]-3-yl)-3-chloro-1,2,4-thiadiazol-5-amine, Trifluoroacetic acid Salt]
